Experimental data published in patent EP1095657A2, “Compositions for the regulation of cytokine activity” (priority 1992, dated 1994).
Marks after values point to notes of the source that are not given here.

How the values were obtained:
[1] = tested on: ELAM-1; assay: TNF-α-induced expression of adhesion molecules by endothelial cells (ELISA); details: for Recombinant human TNFα-induced adhesion molecules (O.D 492): 1 h pretreatment of EC, TNFα alone 1.2±0.1
[2] = tested on: experimental DTH reaction in mice; assay: In vivo bioassay of inhibition of experimental DTH reactivity (oxazolone ear swelling); parameters: species or system mice (BALB/c or CD1); details: for "R" value: inhibitory, 0 = no effect; for DTH Response: at the dose giving Inhmax; for Dose: dose giving Inhmax
Method: Groups of inbred BALB/c (Jackson Laboratories, Bar Harbor, ME) or of outbred CD1 (Weizmann Institute Animal Breeding Center, Rehovot, Israel) mice are sensitized on the shaved abdominal skin with 100 µl of 2% oxazolone (OX) in acetone/olive oil (4/1, v/v) applied topically. DTH sensitivity is elicited 5 days later as follows: mice are challenged with 20 µl of 0.5% OX (10 µl administered topically to each side of the ear) in acetone/olive oil. A constant area of the ear is measured immediately before challenge and 24 and 48 h later with a Mitutoyo engineer's micrometer. The individual measuring ear swelling is blinded to the identity of the groups of mice. The increment (△) of ear swelling is expressed as the mean in units of 10^-2 mm or 10^-4 inch (+SE) depending on the micrometer that is used. Percent inhibition is calculated as follows: %Inhibition= 1-((Treated-negative control)/(positive control-negative control)) [formula]
Mice are treated with LMWH as in Example 5.1, injected the day before primary sensitization to OX. On the fifth day after sensitization to OX, the mice are challenged to induce a DTH reaction, as described above.
The positive control is the DTH reaction elicited in immunized mice in the absence of treatment with LMWH. The negative control is the background swelling produced by the antigen in naive (non-immunized) mice.
BALB/c mice (at least 5 mice per group) were sensitized on the shaved abdomen with 3% 4-ethoxymethylene-2-phenyl oxazolone (OX; BDH Chemicals, GB) in acetone/olive oil applied topically. DTH sensitivity was elicited 5 days later as follows. Mice were challenged with 0.5% OX in acetone/olive oil. The ear was measured immediately before challenge and 24 h later with Mitutoyo engineer's micrometer (Japan). The individual measuring the swelling of the ear was blinded to the identity of the groups of mice. To interfere with DTH response, the low molecular weight immuno-regulatory fractions, diluted in PBS, were administrated subcutaneously into the back of the treated mice at the indicated time schedules and concentrations. Treated mice were inspected during and after (>2 months) the treatment and no major side-effects were observed clinically.
In particular, CD1 mice (available from the Weizmann Institute Animal Breeding Center, Rehovot, Israel), 4-12 mice per group, were treated as described in Section 5.2 or 6.8.

[3] = tested on: secretion of active TNF-α by activated human CD4+ T cells; assay: Bioassay of TNF-α activity using human CD4+ T cells derived from PBLs (human PBL bioassay); details: concentration that gave the Inhmax or Augmax of the same line
[4] = tested on: experimental DTH reaction in mice; assay: In vivo bioassay of inhibition of experimental DTH reactivity (oxazolone ear swelling); parameters: species or system mice (BALB/c or CD1); details: inhibitory; administered orally
[5] = tested on: LPS-induced inflammation of the cornea; assay: LPS-induced inflammation of the rat cornea; format: in vivo, Lewis rats
Method: LPS-induced inflammation of the cornea is TNF dependent, as shown by the work of Vanderhagen, C. and co-workers in the Netherlands, "Kinetics of Intraocular TNF and IL-6 in Endotoxin-Induced Uveitis in the Rat," submitted for publication. Using a 30-gauge needle, LPS (5 ng) was injected into the cornea of Lewis rats. After one day, separate groups of rats, 2 to a group (or 4 eyes to a group), were then injected subcutaneously with phosphate-buffered saline (0.05 ml) or H-1020 (at a dose of either 50 ng/rat or 200 ng/rat). The effects, if any, were scored as follows:
in which the sum of the points is used as the total score.

[6] = tested on: ICAM-1; assay: TNF-α-induced expression of adhesion molecules by endothelial cells (ELISA); details: 1 h pretreatment of EC, TNFα alone 2.2±0.2
[7] = tested on: adjuvant arthritis in Lewis rats; assay: Adjuvant arthritis (AA) in rats; format: in vivo; details: s.c. weekly from 1 day before induction; day 24; dose not given

## O=C(O)C1=C[C@H](O)[C@@H](O)[C@H](O[C@H]2[C@H](O)[C@@H](NS(=O)(=O)O)C(O)O[C@@H]2COS(=O)(=O)O)O1 (stereo partly drawn) [H-1020, 4-deoxy-4-en-iduronic acid-(α-1,4)-2-deoxy-2-N-sulfate-6-O-sulfateglucosamine]
[1]; 50 pg/ml, no TNFα 0.12±0.01
  Recombinant human TNFα-induced adhesion molecules (O.D 492): 0.7±0.05 O.D 492
[1]; 100 pg/ml
  Recombinant human TNFα-induced adhesion molecules (O.D 492): 0.9±0.03 O.D 492
[1]; ELAM-1 and ICAM-1 not told apart in the sentence
  inhibition of the up regulation of EC expression of adhesion molecules induced by TNF-α: up to 50%
[2]; CD1 mice, s.c.
  Inhmax: 66%
  "R" value: 1.65 x 10^5 % x (μg/gm)^-1
[2]; CD1 mice, s.c., at that dose, value in parentheses in the cell taken as positive control, not reported
  DTH: 6.7 ± 1.1 (19.6 ± 1.2) 10^-2 mm
[2]; administered orally
  DTH Response: 5.9 ± 0.9 10^-2mm
  Dose: 0.128^a µg/gm mouse
[2]; subcutaneous
  DTH Response: 4.7 ± 0.7 10^-2mm
  Dose: 0.0005 µg/gm mouse
[2]; maximum % inhibition of DTH divided by the dose giving it, s.c.
  "R" value: 146,000 % x (µg/gm)^-1
[2]; maximum inhibition of DTH, administered orally
  Inhmax: 68%
[2]; maximum inhibition of DTH, subcutaneous
  Inhmax: 73%
[3]
  conc: 1 pg/mL
[4]
  "R" value: 531 % x (µg/gm)^-1
[5]; 50 ng/rat s.c. one day after LPS
  effect on the LPS-induced inflammation score, in words: effective to suppress the effects of the local LPS-induced inflammation
[5]; 200 ng/rat s.c. one day after LPS
  effect on the LPS-induced inflammation score, in words: failed to provide a significant effect
[6]; 50 pg/ml, no TNFα 0.18±0.01
  Recombinant human TNFα-induced adhesion molecules (O.D 492): 1.2±0.1 O.D 492
[6]; 100 pg/ml
  Recombinant human TNFα-induced adhesion molecules (O.D 492): 1.5±0.07 O.D 492
[7]
  inhibition of the development of AA relative to control: about 30%
